# Paper PMC8308585, “Design and Synthesis of Novel Thiazolo[5,4-d]pyrimidine Derivatives with High Affinity for Both the Adenosine A1 and A2A Receptors, and Efficacy in Animal Models of Depression” (Pharmaceuticals, 2021)
# Like-named read-outs stand apart in the source and are kept apart here.
# How the values were obtained:
# human A1 AR = biological target: T1, human A1 AR (Homo sapiens, UniProt P30542); assay: Radioligand binding, displacement of [3H]-CCPA at hA1 AR in CHO cells; details: displacement of specific [3H]-CCPA binding, n = 3–6, mean ± SEM
# T1 construct: expressed in transfected cells; host or cells: CHO cells
# T1 sequence (P30542 1-326): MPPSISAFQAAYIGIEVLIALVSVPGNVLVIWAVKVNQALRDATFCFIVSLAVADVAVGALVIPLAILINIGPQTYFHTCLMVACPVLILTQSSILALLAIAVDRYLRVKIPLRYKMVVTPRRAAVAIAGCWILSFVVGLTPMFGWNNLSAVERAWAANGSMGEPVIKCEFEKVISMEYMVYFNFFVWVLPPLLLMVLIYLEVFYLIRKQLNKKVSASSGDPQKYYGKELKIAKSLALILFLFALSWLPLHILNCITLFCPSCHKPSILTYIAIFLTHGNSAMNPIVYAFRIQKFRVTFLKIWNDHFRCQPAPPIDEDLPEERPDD
# Procedure: (§2) CHO cells, stably expressing hARs, were grown adherently and maintained in Dulbecco’s modified Eagle’s medium (DMEM) with nutrient mixture F12 supplemented with 10% fetal bovine serum (FBS), penicillin (100 µg/mL), streptomycin (100 µg/mL), sodium pyruvate (1 mM), and geneticin (0.1 mg/mL).
# (§3) Briefly, cells were homogenized in cold lysis buffer (5 mM Tris HCl, 2 mM EDTA, pH 7.4), centrifuged at low speed spin for 10 min, and subsequently, the supernatant was spun at 37,000 rpm. Membrane pellet was resuspended in the specific buffer and stored at −80 °C.
# (§4) The binding affinity of the novel compounds was evaluated using radioligand competition experiments in CHO cells stably transfected with hA1 AR, hA2A AR, and hA3 AR subtypes.
# (§5) Binding data and concentration–response curves were fitted by a nonlinear regression with the Prism program (GraphPAD Prism 7 Software, San Diego, CA, USA).
# human A2A AR = biological target: T2, human A2A AR (Homo sapiens, UniProt P29274); assay: Radioligand binding, displacement of [3H]-NECA at hA2A AR in CHO cells;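 further: competition binding on membranes from CHO cells stably transfected with human A2A receptor, binding curves fitted by nonlinear regression in GraphPad Prism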
# T2 construct: expressed in transfected cells; host or cells: CHO cells
# Procedure: as §2, §3, §4, §5
# mice [1] = assay: Sucrose preference test, LPS-induced anhedonia; format: in vivo, mouse; details: for Sucrose Preference (%), 6 h / Sucrose Preference (%), 24 h: LPS 1.25 mg kg^−1 i.p. mice; for Sucrose Preference (%), 6 h: 6 h after LPS, vehicle + LPS 42.3 ± 3.1; for Sucrose Preference (%), 24 h: 24 h after LPS, vehicle + LPS 38.0 ± 5.6
# Procedure: Anhedonia, or the inability to experience pleasure, is a common symptom of depression. The mood regulatory role of 18 was studied against anhedonia evaluated in the sucrose preference test in animals treated with lipopolysaccharide (LPS), a model of neuroinflammation-induced depressive-like syndrome. Compound 18 (10 mg kg^−1 and 30 mg kg^−1) was daily p.o administered for five consecutive days. Twenty-four hours after the last 18 treatment, LPS 1.25 mg kg^−1 was intraperitoneally injected. Immediately after LPS injection, mice were placed in cages equipped with two bottles: a bottle of 2% sucrose solution and a bottle of water (unsweetened tap water). The consumption of the 2% sucrose solution was evaluated 6 h and 24 h after LPS injection. Amitriptyline (15 mg kg^−1) was used as the reference drug administered following the same protocol.
# (§1) Male CD-1 albino mice (22–25 g; Envigo, Varese, Italy) were housed in CeSAL (Centro Stabulazione Animali da Laboratorio, University of Florence, Florence, Italy) and used at least one week after their arrival. Animals were housed in 26 cm × 41 cm cages (12 mice each) and fed with a standard laboratory diet and tap water ad libitum. They were kept at 23 ± 1 °C with a 12 h light/dark cycle, light at 7 a.m. Compound 18 was administered per o.s. whereas amitriptyline was by a s.c. route following the most widely used approach reported in the literature.
# Lipopolysaccharide (LPS) from Escherichia coli was purchased from Sigma-Aldrich, (Milan, Italy) freshly dissolved in sterile saline, and injected intraperitoneally (i.p.) at the dose of 1.25 mg kg^−1 [49] after five consecutive days of treatment with compound 18, 1 h after the last administration of the compound. Behavioral tests were performed before 6 h and 24 h after LPS administration.
# Mice were placed in cages equipped with a couple of bottles, one containing 2% sucrose solution, the second with water (unsweetened tap water). The consumption of the 2% sucrose solution was evaluated 6 h and 24 h after the beginning of the experiment. The preference index was calculated according to the following formula: preference index = volume consumed sucrose solution/(volume consumed sucrose solution + volume consumed water).
# Behavioral tests were performed by visual observation by researchers blinded to the treatments. Results were expressed as means ± SEM, variance was analyzed by ANOVA. A Bonferroni’s significant difference procedure was used as post-hoc comparison. p values of less than 0.05 and 0.01 were considered significant. Data were analyzed using the “Origin 8.1” software.
# mice [2] = assay: Tail suspension test; format: in vivo; details: mouse TST, single dose, mean ± SEM of 10 mice, vehicle 99.0 ± 6.8
# Procedure: To execute the tests, mice were divided into groups, each of which consisted of 10 animals. The tests were performed after a single p.o. administration of compound 18 at different dosages (10 mg Kg^−1 and 30 mg Kg^−1). Amitriptyline (15 mg Kg^−1) was used as the reference drug. Compounds were acutely administrated 26 min before the beginning of the experiment. In the FST (Table 4), the duration of immobility was recorded during the last 4 min of the 6 min test.
# A decrease in the duration of immobility is indicative of an antidepressant-like effect. […] Accordingly, a similar activity was shown in the tail suspension test (Table 5) where the immobility time was measured in the first 2 min, when animals react to the inescapable stress, and in the last 4 min of the test, when the behavioral despair is established. Immobility was defined as the absence of any limb or body movements, except those caused by respiration. A reduction in the duration of the immobility time is indicative of an antidepressant-like effect.
# as §1, with “Compound 18 was administered per o.s. whereas amitriptyline was by a s.c. route following the most widely used approach reported in the literature.” left out
# A piece of tape was adhered to the upper middle of the tail of each animal, creating a flap with the overlap of tape. […] The duration of the test was 6 min and the immobility time was measured in the first 2 min, when animals react to the inescapable stress, and in the last 4 min of the test, when the behavioral despair is established. […]
# Behavioral tests were performed by visual observation by researchers blinded to the treatments. Results were expressed as means ± SEM, variance was analyzed by ANOVA. […] Data were analyzed using the “Origin 8.1” software.
# hA3 AR = biological target: T3, hA3 AR (Homo sapiens, UniProt P0DMS8); assay: Radioligand binding, displacement of [3H]-HEMADO at hA3 AR in CHO cells; details: displacement of specific [3H]-HEMADO binding, mean ± SEM
# T3 construct: expressed in transfected cells; host or cells: CHO cells
# T3 sequence (P0DMS8 1-318): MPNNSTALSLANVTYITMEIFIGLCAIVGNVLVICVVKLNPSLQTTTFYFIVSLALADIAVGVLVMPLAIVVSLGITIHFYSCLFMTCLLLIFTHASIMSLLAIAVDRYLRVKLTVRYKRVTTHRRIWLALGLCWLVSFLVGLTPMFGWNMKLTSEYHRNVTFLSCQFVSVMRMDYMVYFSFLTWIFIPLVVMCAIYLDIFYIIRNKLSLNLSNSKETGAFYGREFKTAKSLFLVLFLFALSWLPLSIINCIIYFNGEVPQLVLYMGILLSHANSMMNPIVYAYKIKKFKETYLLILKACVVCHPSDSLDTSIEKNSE
# Procedure: as §2, §3, §4, §5
# [3] = 10 mg kg^−1 p.o. daily for 5 days
# [4] = 30 mg kg^−1 p.o. daily for 5 days
# T2 sequence (P29274 whole entry): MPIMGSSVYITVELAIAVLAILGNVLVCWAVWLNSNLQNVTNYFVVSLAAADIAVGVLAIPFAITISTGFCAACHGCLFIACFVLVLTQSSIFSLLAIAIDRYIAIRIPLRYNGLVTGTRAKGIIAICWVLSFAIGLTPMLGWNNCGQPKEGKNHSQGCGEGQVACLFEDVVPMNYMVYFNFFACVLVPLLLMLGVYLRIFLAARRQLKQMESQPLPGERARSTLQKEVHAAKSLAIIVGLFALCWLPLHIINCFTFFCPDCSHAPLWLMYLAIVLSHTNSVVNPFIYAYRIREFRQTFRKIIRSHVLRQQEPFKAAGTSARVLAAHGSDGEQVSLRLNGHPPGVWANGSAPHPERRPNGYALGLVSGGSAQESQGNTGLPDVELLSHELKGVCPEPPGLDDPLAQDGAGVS
structure (smiles),measurement,setting,value
"Nc1nc(-c2ccco2)nc2sc(Cc3ccccc3F)nc12 [compound 18, 2-(2-Fluorobenzyl)-5-(furan-2-yl)thiazolo[5,4-d]pyrimidin-7-amine]",Ki,human A1 AR,1.9 ± 0.08 nM
same,Ki,"human A2A AR; displacement of specific [3H]-NECA binding, CHO cells, mean ± SEM, read-out: hA2A Ki",0.06 ± 0.02 nM
same,Ki,"human A2A AR; hA2A AR, as listed in Table 3, read-out: pKi A2A (converted)",0.0646 nM
same,"Sucrose Preference (%), 6 h",mice [1]; [3],48.9 ± 6.7%
same,"Sucrose Preference (%), 24 h",mice [1]; [3],39.7 ± 3.7%
same,"Sucrose Preference (%), 6 h",mice [1]; [4],67.3 ± 1.6 %
same,"Sucrose Preference (%), 24 h",mice [1]; [4],64.9 ± 2.6 %
same,"Anhedonia-like behavior induced by LPS, preference index (in words)","mice [1]; mouse, 30 mg kg^−1 p.o. daily for 5 days",able to revert the anhedonia-like behavior induced by LPS comparably to the effect of amitriptyline
same,Immobility Time,mice [2]; 10 mg kg^−1 p.o.,88.9 ± 10.16 s
same,Immobility Time,mice [2]; 30 mg kg^−1 p.o.,56.5 ± 6.1 s
same,Ki,hA3 AR,93.1 ± 2.8 nM
